Measured values published in patent US20200171015A1, “METHODS OF TREATMENT FOR CYSTIC FIBROSIS” (Vertex Pharmaceuticals Incorporated, priority 2017, published 2020).
Marks after values point to notes of the source that are not given here.

What was measured:
[1] = Preclinical reproductive toxicology studies; settings: in vivo
[2] = system: people with CF who have one F508del mutation and one minimal function mutation (F/MF); experiment: Phase 2 study Part 1: efficacy (ppFEV1, sweat chloride, CFQ-R); assay type: in vivo, human; settings: Part 1 F/MF
Method: (§1) The safety of Compound I in triple combination with Compounds II and III is evaluated in CF subjects in a 2-part, randomized, double-blind, placebo- and Compound II/III-controlled, parallel-group, multicenter study. Parts 1 and 2 include a Screening Period, a 2-week Treatment Period, and a Safety Follow-up Visit. Part 2 also includes a 4-week Run-in Period before the Treatment Period and a 2-week Washout Period after the Treatment Period.
In Part 1, three dose levels of Compound I (100, 200, and 300 mg q12h) in triple combination with Compound II (100 mg qd) and Compound III (150 mg q12h) is evaluated in subjects with the F508del/MF genotype.
Part 1 has three cohorts (Cohorts IA, IB, and IC). In Cohort 1A, the triple combination of Compound I at 100 mg q12h, Compound II at 100 mg qd, and Compound III at 150 mg q12h is evaluated in subjects with the F508del/MF genotype. In Cohort IB, the triple combination of Compound I at 200 mg q12h, Compound II at 100 mg qd, and Compound III at 150 mg q12h is evaluated in subjects with the F508del/MF genotype. In Cohort IC, the triple combination of Compound I at 300 mg q12h, Compound II at 100 mg qd, and Compound III at 150 mg q12h is evaluated in subjects with the F508del/MF genotype. Triple placebo is the comparator for all three cohorts
(§2) Primary endpoints for the study include: safety and tolerability assessments based on adverse events (AEs), clinical laboratory values, standard 12-lead electrocardiograms (ECGs), vital signs, and pulse oximetry. Secondary endpoints include: absolute change in sweat chloride concentrations from baseline at Day 15; absolute change in percent predicted forced expiratory volume in 1 second (ppFEV1) from baseline at Day 15; relative change in ppFEV1 from baseline at Day 15; absolute change in Cystic Fibrosis Questionnaire-Revised (CFQ-R) respiratory domain score from baseline at Day 15; and PK parameters of Compound I, Compound II, Compound III, and metabolites of Compounds II and III.
(§3) In this Phase 2 randomized, double-blind study, Compound I (100 mg, 200 mg and 300 mg q12h) in combination with Compound II (100 mg qd) and Compound III (150 mg q12h) in people with CF ages 18 and older who have one F508del mutation and one minimal function mutation and in people who have two copies of the F508del mutation was studied. Primary endpoints as described above in Example 6 were for safety and tolerability. Secondary endpoints included absolute change in ppFEV1 and change in sweat chloride.
In Part 1 of the study, the triple combination was evaluated for two weeks in 34 patients ages 18 and older who had one F508de/mutation and one minimal function mutation (8 in combined placebo, 6 in Compound I 100 mg, 10 in Compound 1 200 mg, and 10 in Compound 1 300 mg). A summary of the within-group ppFEV (primary endpoint) and sweat chloride data (secondary endpoint) through Day 15 is provided below.

[3] = Previous studies of Compound I, safety and tolerability; assay type: in vivo, human
CFTR = settings: disclosed in PCT Publication No. WO 2016/057572; cited from earlier work
[4] = system: people with CF who have two copies of the F508del mutation (F/F); experiment: Phase 2 study Part 2: efficacy (ppFEV1, sweat chloride); assay type: in vivo, human; settings: Part 2 F/F
Method: as §1
In Part 2, two dose levels of Compound I (200 and 300 mg q12h) in triple combination with Compound II (100 mg qd) and Compound III (150 mg q12h) is evaluated in subjects with the F508del/F508del genotype.
Part 2 has two cohorts (Cohorts 2A and 2B). In Cohort 2A, the triple combination of Compound I at 200 mg q12h, Compound II at 100 mg qd, and Compound III at 150 mg q12h is evaluated in subjects with the F508del/F508del genotype. In Cohort 2B, the triple combination of Compound I at 300 mg q12h, Compound II at 100 mg qd, and Compound III at 150 mg q12h is evaluated in subjects with the F508del/F508del genotype. The combination of placebo, Compound II, and Compound III is the comparator for both cohorts.
as §2, §3
In Part 2 of the study, the triple combination was evaluated for two weeks in 14 patients ages 18 and older who had two copies of the F508del mutation, who were already receiving the combination of Compound II and Compound III (4 weeks, 4 in placebo and 10 in Compound I 200 mg). A summary of the within-group lung function (ppFEV) (primary endpoint) and sweat chloride data (secondary endpoint) for the triple combination treatment period, from baseline (end of the 4-week Compound II/Compound III run-in period), through Day 15 is provided below.
A summary of the within-group lung function (ppFEV) (primary endpoint) and sweat chloride data (secondary endpoint) from patients in Part 2 of the study who received the triple combination including 300 mg of Compound I for 4 weeks is provided below.

[5] = Example 4: randomized, double-blind, placebo-controlled single- and multiple-dose escalation study, safety and tolerability; assay type: in vivo, human; settings: healthy volunteers
Excerpt: A randomized, double-blind, placebo-controlled, single- and multiple-dose, dose-escalation study was conduced in healthy volunteer subjects. Subjects were randomized to receive Compound I or placebo (Part A and Part B), and triple combination of Compound I, Compound II, and Compound III, or triple placebo (Part C).

[6] = Compound I 100 mg in triple combination with Compound II and Compound III, n 6
[7] = Compound I 200 mg in triple combination with Compound II and Compound III, n 10
[8] = Compound I 300 mg in triple combination with Compound II and Compound III, n 21

CC(C)COc1cc(F)cc(-c2ccc(C(=O)NS(=O)(=O)c3cccc(N)n3)c(N3C[C@@H](C)CC3(C)C)n2)c1 [Compound I, N-[(6-amino-2-pyridyl)sulfonyl]-6-(3-fluoro-5-isobutoxy-phenyl)-2-[(4S)-2,2,4-trimethylpyrrolidin-1-yl]pyridine-3-carboxamide]
Findings in preclinical reproductive toxicology studies [1]: no adverse findings of note
Sweat Chloride, Abs. Change from Baseline, Day 15 Results [2, 6]: −19.5
ppFEV1, Abs. Change from Baseline, Day 15 Results [2, 6]: 5.7
ppFEV1, Abs. Change from Baseline, Day 15 Results [2, 7]: 9.7
Sweat Chloride, Abs. Change from Baseline, Day 15 Results ([2]; Compound I 200 mg in triple combination with Compound II and Compound III, n 10, missing data from 2 subjects): −13.6^a
Sweat Chloride, Abs. Change from Baseline, Day 15 Results ([2]; Compound I 300 mg in triple combination with Compound II and Compound III, n 10): −27.5
ppFEV1, Abs. Change from Baseline, Day 15 Results ([2]; Compound I 300 mg in triple combination with Compound II and Compound III, n 10, missing data from 2 subjects): 8.0^a
Safety and tolerability ([3]; multiple doses up to 300 mg q12h in combination with Compound II (100 mg qd) and Compound III (150 mg q12h), after 14 days of dosing): generally safe and tolerated
Safety and tolerability ([3]; single doses up to 2000 mg and multiple doses up to 400 mg q12h): generally safe and well tolerated
Hemolysis ([3]; subjects with glucose-6-phosphate dehydrogenase (G6PD) deficiency): treatment-emergent hemolysis in a subject who was found to have glucose-6-phosphate dehydrogenase (G6PD) deficiency
EC30 as CFTR modulator (CFTR): < 3000 nM
Sweat Chloride, Abs. Change from Baseline, Day 15 Results [4, 7]: −21.3
ppFEV1, Abs. Change from Baseline, Day 15 Results [4, 7]: 7.3
Sweat Chloride, Abs. Change from Baseline, Day 15 Results [4, 8]: −23.9
Sweat Chloride, Abs. Change from Baseline, Day 29 Results [4, 8]: −22.3
ppFEV1, Abs. Change from Baseline, Day 15 Results [4, 8]: 5.1
ppFEV1, Abs. Change from Baseline, Day 29 Results [4, 8]: 6.5
Deaths, serious or severe adverse events ([5]; all parts of the study): no deaths or serious or severe adverse events
Severity of adverse events ([5]; all parts of the study): mild or moderate
Dose-limiting adverse events ([5]; multiple doses of 800 mg q12h): Dose-limiting adverse events were observed
Tolerability ([5]; multiple doses up to 400 mg q12h for 14 days): well tolerated
Tolerability ([5]; single doses from 50 mg up to 2000 mg): well tolerated
Tolerability ([5]; up to 300 mg q12h in triple combination with Compound II (100 mg qd) and Compound III (150 mg q12h) for 13 days): well tolerated
